Experimental data published in PubChem BioAssay (NCI).
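Five concentrations, 48 hours, 96-well plates. GI50 is the concentration that inhibits growth by half. TGI marks complete inhibition of growth.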

Tests used:
Experiment in all cases: NCI-60 cell line screen, 48 h
[1] = test system: U251 CNS
[2] = test system: SNB-75 CNS
[3] = test system: A549 NSCLC
[4] = test system: UACC-257 melanoma
[5] = test system: RXF 393 renal
[6] = test system: ACHN renal
[7] = test system: HT29 colon
[8] = test system: HCT-15 colon
[9] = test system: SF-539 CNS
[10] = test system: UO-31 renal
[11] = test system: SK-OV-3 ovarian
[12] = test system: SF-268 CNS
[13] = test system: SK-MEL-28 melanoma
[14] = test system: MDA-MB-435
[15] = test system: SK-MEL-2 melanoma
[16] = test system: K-562 leukemia
[17] = test system: CCRF-CEM leukemia
[18] = test system: HL-60(TB) leukemia

Compound	TGI [1] [µM]	TGI [2] [µM]	TGI [3] [µM]	TGI [4] [µM]	TGI [5] [µM]	TGI [6] [µM]	TGI [7] [µM]	TGI [8] [µM]	TGI [9] [µM]	TGI [10] [µM]	TGI [11] [µM]	TGI [12] [µM]	TGI [13] [µM]	TGI [14] [µM]	TGI [15] [µM]	TGI [16] [µM]	TGI [17] [µM]	TGI [18] [µM]	GI50 [14] [µM]
CCOC(=O)C1(C/C=C\CBr)CCCCCCCCCCC1=O (centres undefined)	26.1	26.9	> 53	31.3	25.4	32	34.3	32.8	14.8	15.2	31.2	27.6	30.7	29.8	36.5	20.2			
C/C(=N\NC(=S)NC(C)(C)C)c1ccccn1	> 85.9	> 100	> 38.4	> 100	23.2		> 76.6	> 100	18.1	14.3	80.1	> 87.8	> 100	> 100	> 100				
COc1cc2c(cc1OC)C(C)N(C)c1c-2c(OC(C)=O)cc2cc(OC)c(OC)cc12 (centres undefined)	> 68.5	> 79	> 69.2	24.2	31.1	97	> 58.9	> 81.2	40.6	> 92.1	> 100	> 100	> 60.1	35.6	30.2	> 100	> 100		
CC1(C)OC(=O)C2(O1)C(=O)C1CCCCC12 (centres undefined)	> 100		> 100	> 100	> 100	> 100	> 100	> 100		> 100	> 100	> 100	> 100	> 100	> 100	> 100	> 100		
CCSc1nc(=[N+]2CCCC2)ss1	> 100	> 96.6	> 100	> 100	> 83.3	> 100	> 92.1	> 92.8	> 85.6	> 100	> 100	> 100	> 100	42.5	> 100	24.1	13.2	26.6	
CC(=O)N(CN1C(=O)CCC1C(=O)O)c1cccc(O)c1 (centres undefined)	> 100	> 100	> 100	> 100		> 100	> 100	> 100	> 100	> 100	> 100	> 100	> 100	> 100	> 100	> 100	> 100	> 100	
O=c1oc(-c2ccccc2)c(-c2ccccc2)n1-c1ccc(Br)cc1	> 100	32.2	> 100	> 100	> 100	> 100	> 100	> 100	53.8	> 100	> 100	> 100	> 100	> 100	> 100		> 100	> 100	
COC(=O)C1(Cc2ccc3c(c2)CCC3)Cc2ccc3c(c2C1)CCC3 (centres undefined)	37.1	> 100	> 100	30.3	83.3	73.2	33.9	> 100	> 100	74	> 100	> 100	> 100	39		> 100	> 100	> 100	
O=C1[C@@H]2C[C@@H](O)CN2C(=O)c2ccccc2N1CCCO	> 100	> 100	> 100	> 100		> 100	> 100	> 100	> 100	> 100	> 100	> 100	> 100	> 100	> 100	> 100			
Clc1nc(NCCc2ccccc2)c2ncn(-c3ccccc3)c2n1	48.6	90.4	> 100	34.6	> 100	92.7	34.2	> 100		43.1	60.7	> 100	94.1	35.1	19.9	70.5			
CCOc1cc2c(cc1O)/C(=N/NS(=O)(=O)c1ccc(C)cc1)C[C@@H]1[C@@H]2CC[C@]2(C)[C@@H](O)CC[C@@H]12	> 100	67.7	> 100	> 100	> 100	81.2	> 100	> 100	65.6	> 100	> 100	> 100	> 100	> 100	> 100	> 100	> 100		0.917
